Experiments:
[1] = test system: ECF-resistant MKN-74 cells; assay: Crystal violet staining and WST-1 analysis of regrowth after ECF treatment of NINJ2 knockdown cells; format: cell-based, human; settings: 3 weeks after ECF treatment; NINJ2 knockdown ECF-resistant MKN-74 cells
Experimental: To evaluate whether NINJ2 is involved in drug resistance, a stable NINJ2 knockdown (K/D) ECF-resistant cancer cell line was prepared using shRNA lentiviral particles and puromycin. More specifically, for stable NINJ2 knockdown in ECF-resistant MKN-74 cells, two shRNAs (TRCN0000063773 (Clone-1) and TRCN0000063775 (Clone-2)) targeting different partial regions of NINJ2 genes (Isoform-1, Isoform-2 and Isoform-3) as shown in Table 1 below were used, and a non-targeting pLKO.1-puro shRNA control (SHC002) was used as a negative control. The shRNA clones (TRCN0000063773, TRCN0000063775 and SHC002) containing the pMDLg/pRRE, pRSV-Rev and pMD2.G plasmids, respectively, were transfected into 293T cells using Fugene HD (Promega) according to the manufacturer's instructions. After 48 hours, each supernatant was collected and filtered, and ECF-resistant MKN-74 cells were transduced with lentiviral particles and cultured in a growth medium containing puromycin. After NINJ2 knockdown in the lentivirus-transduced MKN-74 cells was confirmed using qRT-PCR, the cells were treated with ECF, and an examination was made as to whether cancer cells in the negative control (Mock) and the shNINJ2 groups (clone 1 and clone 2) re-grew.

[2] = test system: ECF-resistant cancer cells (RES) from the MKN-28/74 cell line; assay: Nude mouse xenograft of ECF-resistant MKN-28/74 cells given ECF and siRNA; format: in vivo, Balb/c nude mice; settings: ECF (5.7 mg/kg epirubicin, 6.67 mg/kg cisplatin, 22 mg/kg 5-FU) intratumorally once a week; NINJ2 mRNA expression inhibited
Experimental: FIGS. 9A and 9B show the results of measuring changes in tumor volume and weight after transplanting wild-type or scrambled siRNA RES and siNINJ2 RES cancer cell lines from the MKN-28/74 cell line into nude mice and then administering ECF and siRNA to the nude mice when the tumor volume reached 100 mm^3, according to one example of the present invention.
A mouse model was prepared by xenografting Balb/c nude mice with the spheroids prepared from the MKN-28/74 cell line by the method of Example 3. Specifically, […] ECF-resistant cancer cells (ECF-R cancer cells) and parental cancer cells were subcutaneously injected into Balb/c nude mice, respectively, and an examination was made as to whether the animal model xenografted with the ECF-resistant cancer cells (RES) established in vitro had acquired ECF drug resistance. […] To this end, 5.7 mg/kg of epirubicin, 6.67 mg/kg of cisplatin and 22 mg/kg of 5-FU were administered intratumorally to xenograft model mice having a tumor size of 100 mm^3 once a week for 15 days, and the tumor weight and the tumor volume were measured every 3 days using digital calipers. […]
Referring to FIG. 9A, it was confirmed that the tumor volume changed after the ECF drugs were administered to the animal model xenografted with each cell line group. FIG. 9B depicts graphs showing the results of quantifying the changes in the tumor volume and weight.

clone-1: NINJ2-targeting shRNA, lentiviral; target region SEQ ID NO: 5, hairpin sequence SEQ ID NO: 9 (guide CCGGCGTGGTCATTGCACGGCTGAACTCGAGTTCAGCCGTGCAATGACCACGTTTTTG)
recurrence and regrowth of cancer cells compared to negative control (Mock) [1]: significantly inhibited

clone-2: NINJ2-targeting shRNA, lentiviral; target region SEQ ID NO: 6, hairpin sequence SEQ ID NO: 10 (guide CCGGCTGAACCTGAATGAGGTAGAACTCGAGTTCTACCTCATTCAGGTTCAGTTTTTG)
recurrence and regrowth of cancer cells compared to negative control (Mock) [1]: significantly inhibited

siNINJ2: siRNA against NINJ2, sense SEQ ID NO: 11 and antisense SEQ ID NO: 12 (sense GUAAGGCAUGUCUGUCUAAGGCC; antisense GGCCUUAGACAGACAUGCCUUAC; listed as RNA, chemistry not given here)
tumor volume compared to the RES group [2]: significantly decreased | tumor weight compared to the RES group [2]: significantly decreased

From patent US12716888B2, “Composition for diagnosis or treatment of anticancer drug resistance” (priority 2020, dated 2026)
